Reference: PubChem BioAssay AID2060495 (Molecular Pharmacology Branch, DTP, NCI, 2025)

Test system: 521955-158-R2-J5-PDC complex spheroid viability
Experiment: Anticancer human tumor 521955-158-R2-J5-PDC patient-derived pancreatic carcinoma cell line growth inhibition [GQUAD]
Settings: for IC50: curve of first compound; for viability, T/C: stronger effect = lower value
Description: DNA G-quadruplex Stabilizer Agents in Combinations in Complex Spheroids
A high-throughput screen of multi-cell type tumor spheroids was designed to identify active combinations of DNA G-quadruplex stabilizer agents and targeted small molecules. Complex spheroids include a stromal component modeled by human endothelial cells (HUVEC) and fibroblasts modeled by human mesenchymal stem cells (MSCs). The concentration ranges selected for each drug and investigational agent were based upon clinically achievable concentrations if the clinical Cmax of the agent was known.
Compounds. The drugs and investigational agents: pidnarulex (CX-5461; NSC782164), APTO-253 (NSC789042), BRACO-19 (NSC847499), peposertib (NSC802822), ceralasertib (NSC780249), elimusertib (NSC800525), camonsertib (NSC841442), AZD-1390 (NSC803789), olaparib (NSC753686), talazoparib (NSC767125), ART-558 (NSC835418), sotorasib (NSC818433), MRTX-1133 (NSC836407), SN-38 (NSC673596), topotecan (NSC609699), etoposide (NSC141540), doxorubicin (NSC123127), gemcitabine (NSC613327), 5-fluorouracil (NSC19893), paclitaxel (NSC125973), vemurafenib (NSC761431), panobinostat (NSC761190), R-306465 (JNJ-16241199; NSC773264), adavosertib (NSC754352), TP-3654 (NSC805149), carboplatin (NSC241240), KSQ-4279 (NSC840948), and staurosporine (NSC755774) were obtained from the National Cancer Institute (NCI) Developmental Therapeutics Program Chemical Repository (34). The FDA-approved anticancer drug set is available from the NCI Developmental Therapeutics Program. […] The stock solutions were prepared in dimethyl sulfoxide (DMSO, Sigma-Aldrich, St. Louis, MO, cat. D2650) at 800-fold the tested concentration and stored at -70 degrees C prior to their use. All drugs and investigational agents were tested over a range starting from a high concentration at or near the clinical Cmax and decreasing in half-log increments. If the clinical Cmax for an agent had not been determined, the highest concentration tested was 10 microM.
2.3 Cell Culture. All cells were maintained in an incubator at 37 degrees C and 5% CO2 with 95% humidity. The PDC lines were cultured according to standard operating procedures established by the NCI PDMR. All PDCs were thawed and cultured in Matrigel-coated flasks prepared with a working solution of 1X Ham's F-12 nutrient mix, without supplementation (Invitrogen, cat. 11765054), 100 U/mL penicillin-streptomycin (Invitrogen, cat. 15140122), and 2.5% Matrigel (Corning Inc., cat. 354248) for the first three passages. The 857933-349-R-J2-PDC line was cultured in 6C/Colon 1B media, which includes advanced DMEM/F-12 (Thermo Fisher Scientific, cat. 12634028), 10 mM HEPES (Thermo Fisher Scientific, cat. 15630080), 1X GlutaMAX supplement (Thermo Fisher Scientific, cat. 35050061), 0.1 mg/mL primocin (InvivoGen, cat. ant-pm-2), 10% defined fetal bovine serum, heat inactivated (HyClone Laboratories Inc., cat. SH30070.03HI), 50% L-WRN conditioned media (ATCC, cat. CRL-3276), 1.25 mM N-Acetyl-L-cysteine (Sigma-Aldrich, cat. A9165), 10 mM nicotinamide (Sigma-Aldrich, cat. N0636), 1X B-27 supplement (Thermo Fisher Scientific, cat. 17504044), 1X N-2 supplement (Thermo Fisher Scientific, cat. 17502048), 10 microM Y-27632 dihydrochloride (Tocris Bioscience, cat. 1254), and 50 ng/mL human EGF recombinant protein (Thermo Fisher Scientific, cat. PHG0311). The 485176-168-R4-J1-PDC line was cultured in Panc media, which includes all 6C/Colon 1B media components plus 100 ng/mL human FGF-10 (Thermo Fisher Scientific, cat. 100-26), 500 nM SB-431542 (Selleckchem, cat. S1067), and gastrin (Tocris, cat. 3006).
[…]

[1] = second compound 0.0316 µM, first compound 0.0316 µM
[2] = second compound 0.0316 µM, first compound 0.316 µM
[3] = second compound 0.1 µM, first compound 0.0316 µM
[4] = second compound 0.1 µM, first compound 0.316 µM
[5] = second compound 0.316 µM, first compound 0.0316 µM
[6] = second compound 0.316 µM, first compound 0.316 µM
[7] = second compound 1 µM, first compound 0.0316 µM
[8] = second compound 1 µM, first compound 0.316 µM
[9] = second compound 3.16 µM, first compound 0.0316 µM
[10] = second compound 3.16 µM, first compound 0.316 µM
[11] = second compound 10 µM, first compound 0.0316 µM
[12] = second compound 10 µM, first compound 0.316 µM
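Note: spheroids exposed to agents for one week before reading.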
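Throughout, for viability, T/C: 100% = DMSO vehicle control viability.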

Q: What does the source list for `C=CC(=O)N1CCN(c2nc(=O)n(-c3c(C)ccnc3C(C)C)c3nc(-c4c(O)cccc4F)c(F)cc23)C(C)C1` (centres undefined) + CN(C)c1ccc(Nc2c3ccc(NC(=O)CCN4CCCC4)cc3nc3cc(NC(=O)CCN4CCCC4)ccc23)cc1?
A: IC50 (second compound 0.0316 µM): > 10000 nM; IC50 (second compound 0.1 µM): > 10000 nM; IC50 (second compound 0.316 µM): > 10000 nM; IC50 (second compound 1 µM): > 10000 nM; IC50 (second compound 3.16 µM): > 10000 nM; IC50 (second compound 10 µM): > 10000 nM; viability, T/C [1]: 103%; viability, T/C (second compound 0.0316 µM, first compound 0.1 µM): 94.1%; viability, T/C [2]: 105%; viability, T/C (second compound 0.0316 µM, first compound 1 µM): 96.8%; viability, T/C (second compound 0.0316 µM, first compound 3.16 µM): 108%; viability, T/C (second compound 0.0316 µM, first compound 10 µM): 101%; viability, T/C [3]: 98.2%; viability, T/C (second compound 0.1 µM, first compound 0.1 µM): 105%; viability, T/C [4]: 119%; viability, T/C (second compound 0.1 µM, first compound 1 µM): 111%; viability, T/C (second compound 0.1 µM, first compound 3.16 µM): 122%; viability, T/C (second compound 0.1 µM, first compound 10 µM): 93.3%; viability, T/C [5]: 91.7%; viability, T/C (second compound 0.316 µM, first compound 0.1 µM): 90.4%; viability, T/C [6]: 101%; viability, T/C (second compound 0.316 µM, first compound 1 µM): 114%; viability, T/C (second compound 0.316 µM, first compound 3.16 µM): 101%; viability, T/C (second compound 0.316 µM, first compound 10 µM): 95.3%; viability, T/C [7]: 90.3%; viability, T/C (second compound 1 µM, first compound 0.1 µM): 84.5%; viability, T/C [8]: 94.1%; viability, T/C (second compound 1 µM, first compound 1 µM): 112%; viability, T/C (second compound 1 µM, first compound 3.16 µM): 100%; viability, T/C (second compound 1 µM, first compound 10 µM): 81.3%; viability, T/C [9]: 71.7%; viability, T/C (second compound 3.16 µM, first compound 0.1 µM): 87.5%; viability, T/C [10]: 85.5%; viability, T/C (second compound 3.16 µM, first compound 1 µM): 96.9%; viability, T/C (second compound 3.16 µM, first compound 3.16 µM): 96.7%; viability, T/C (second compound 3.16 µM, first compound 10 µM): 73.5%; viability, T/C [11]: 77.5%; viability, T/C (second compound 10 µM, first compound 0.1 µM): 72.8%; viability, T/C [12]: 72.5%; viability, T/C (second compound 10 µM, first compound 1 µM): 70.6%; viability, T/C (second compound 10 µM, first compound 3.16 µM): 101%; viability, T/C (second compound 10 µM, first compound 10 µM): 70.6%

Q: What does the source list for `CC[C@@]1(O)C(=O)OCc2c1cc1n(c2=O)Cc2cc3c(CN(C)C)c(O)ccc3nc2-1` + CN(C)c1ccc(Nc2c3ccc(NC(=O)CCN4CCCC4)cc3nc3cc(NC(=O)CCN4CCCC4)ccc23)cc1?
A: IC50 (second compound 0.0316 µM): 121 nM; IC50 (second compound 0.1 µM): 93.7 nM; IC50 (second compound 0.316 µM): 86.4 nM; IC50 (second compound 1 µM): 96.7 nM; IC50 (second compound 3.16 µM): 80.1 nM; IC50 (second compound 10 µM): 79.3 nM; viability, T/C (second compound 0.0316 µM, first compound 0.000999 µM): 106%; viability, T/C (second compound 0.0316 µM, first compound 0.00316 µM): 118%; viability, T/C (second compound 0.0316 µM, first compound 0.00999 µM): 110%; viability, T/C [1]: 86.7%; viability, T/C (second compound 0.0316 µM, first compound 0.0999 µM): 55.8%; viability, T/C [2]: 28.2%; viability, T/C (second compound 0.1 µM, first compound 0.000999 µM): 85.3%; viability, T/C (second compound 0.1 µM, first compound 0.00316 µM): 108%; viability, T/C (second compound 0.1 µM, first compound 0.00999 µM): 95.1%; viability, T/C [3]: 82.2%; viability, T/C (second compound 0.1 µM, first compound 0.0999 µM): 48.2%; viability, T/C [4]: 41.2%; viability, T/C (second compound 0.316 µM, first compound 0.000999 µM): 101%; viability, T/C (second compound 0.316 µM, first compound 0.00316 µM): 98.5%; viability, T/C (second compound 0.316 µM, first compound 0.00999 µM): 98.7%; viability, T/C [5]: 89.4%; viability, T/C (second compound 0.316 µM, first compound 0.0999 µM): 44.3%; viability, T/C [6]: 28.6%; viability, T/C (second compound 1 µM, first compound 0.000999 µM): 131%; viability, T/C (second compound 1 µM, first compound 0.00316 µM): 91.6%; viability, T/C (second compound 1 µM, first compound 0.00999 µM): 95.7%; viability, T/C [7]: 82.8%; viability, T/C (second compound 1 µM, first compound 0.0999 µM): 43.1%; viability, T/C [8]: 24.9%; viability, T/C (second compound 3.16 µM, first compound 0.000999 µM): 101%; viability, T/C (second compound 3.16 µM, first compound 0.00316 µM): 101%; viability, T/C (second compound 3.16 µM, first compound 0.00999 µM): 81.2%; viability, T/C [9]: 76.9%; viability, T/C (second compound 3.16 µM, first compound 0.0999 µM): 41.2%; viability, T/C [10]: 26.5%; viability, T/C (second compound 10 µM, first compound 0.000999 µM): 63.7%; viability, T/C (second compound 10 µM, first compound 0.00316 µM): 62.3%; viability, T/C (second compound 10 µM, first compound 0.00999 µM): 53.4%; viability, T/C [11]: 63.5%; viability, T/C (second compound 10 µM, first compound 0.0999 µM): 45.2%; viability, T/C [12]: 31.4%
